In patent US11000033B2, “Ketone or oxime compound, and herbicide” (NISSAN CHEMICAL CORPORATION, priority 2014, dated 2021):

What was measured:
Type in all cases: in vivo
[1] = test system: Lolium multiflorum Lam.; assay: Test Example 5: herbicidal effect by foliage application, plastic box (symbol K); settings: 320 g/ha, 3 weeks after application
Procedure, shortened: (§1)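 Effect is rated 3 weeks after a foliar spray of water-diluted emulsion concentrate at a predetermined herbicide amount. Plants had grown 14 days in a 25° C. to 30° C. greenhouse from seed in sterilized diluvial soil.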

[2] = test system: Echinochloa crus-galli var. crus-galli; assay: Test Example 5: herbicidal effect by foliage application, plastic box (symbol H); settings: 320 g/ha, 3 weeks after application
Procedure, shortened: as §1

[3] = test system: beet; assay: Test Example 4: effect on crop by soil treatment (symbol f); settings: application herbicide amount 320 g/ha
Procedure, shortened: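 Steps: fill box with sterilized diluvial soil; sow seed spot-like; cover with ~1.5 cm soil; grow in greenhouse (25° C. to 30° C.).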

[4] = test system: Scirpus juncoides; assay: Test Example 2: herbicidal activity, application during weed generation in submerged conditions (symbol B); settings: Table 23; application herbicide amount 320 g/ha; grade 0-5 by criteria of Test Example 1
Procedure, shortened: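 Weeds emerging under flooded conditions were treated with compound formulated as an emulsion and diluted with water to the intended herbicide amount, poured onto the surface of 4 cm standing water. Seeds had been co-sown in alluvial soil; plants grew at 25° C. to 30° C. and were assessed after 3 weeks.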

[5] = test system: directly sowed rice plant; assay: Test Example 3: effect on crop by foliage application, Wagner pot (symbol b); settings: application herbicide amount 320 g/ha
Procedure, shortened: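 Plants are raised from seed in flooded paddy conditions: water stands 0.1–0.5 cm over alluvial soil, and the pot is kept in a greenhouse at 25–30 °C. Species sown are barnyardgrass (E. crus-galli var. crus-galli), Leptochloa chinensis, Cyperus difformis and rice.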

[6] = test system: Monochoria vaginalis; assay: Test Example 1: herbicidal activity, application before weed generation in submerged conditions (symbol C); settings: application herbicide amount 320 g/ha
Procedure, shortened: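 Ratings (5: ≥90%, near complete withering; 4: 70–<90%; 3: 40–<70%; 2: 20–<40%; 1: 5–<20%; 0: ≤5%) were assigned 3 weeks after the diluted emulsion was applied to the water surface of freshly sown, submerged pots.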

[7] = test system: Stellaria media; assay: Test Example 4: herbicidal effect by soil treatment (symbol P); settings: application herbicide amount 320 g/ha
Procedure, shortened: (§2)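 Seeds were sown in sterilized diluvial soil, covered with about 1.5 cm of soil, and the soil surface was sprayed with a water-diluted emulsion of the compound at a predetermined rate. Plants grew in a greenhouse at 25° C. to 30° C.; effects were scored visually 3 weeks after application.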

[8] = test system: soybean; assay: Test Example 5: effect on crop by foliage application, plastic box (symbol d); settings: 320 g/ha, 3 weeks after application
Procedure, shortened: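 Crop seed is sown alongside grass and broadleaf weed species in spots in sterilized diluvial soil, then covered to a depth of about 1.5 cm. Plants grow in a greenhouse kept at 25° C. to 30° C.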

[9] = test system: Abutilon theophrasti; assay: Test Example 4: herbicidal effect by soil treatment (symbol M); settings: application herbicide amount 320 g/ha
Procedure, shortened: as §2

Compound	K: Lolium multiflorum Lam., herbicidal effect (criteria of Test Example 1) [1]	H: Echinochloa crus-galli var. crus-galli, herbicidal effect (criteria of Test Example 1) [2]	Effect on crop grade, f: beet [3]	Herbicidal effect grade, B: Scirpus juncoides [4]	effect on crop b (directly sowed rice plant), grade 0-5 [5]	Herbicidal effect grade, C: Monochoria vaginalis [6]	Herbicidal effect grade, P: Stellaria media [7]	d: soybean, effect on crop (criteria of Test Example 1) [8]	Herbicidal effect grade, M: Abutilon theophrasti [9]	K: Lolium multiflorum Lam., herbicidal effect grade [1]	H: Echinochloa crus-galli var. crus-galli, herbicidal effect grade [2]	f: beet, effect on crop grade [3]	P: Stellaria media, herbicidal effect grade [7]	d: soybean, effect on crop grade [8]	M: Abutilon theophrasti, herbicidal effect grade [9]
CC(=O)CC1CC(O)=C(c2c(C)cc(-c3ccccn3)cc2C)C1=O (stereo not drawn) [7-012]	5 (Herbicidal ratio of 90% or more (almost completely withered))	5 (Herbicidal ratio of 90% or more (almost completely withered))	0 (Herbicidal ratio of 5% or lower (almost no effect))	0 (Herbicidal ratio of 5% or lower (almost no effect))	5 (Herbicidal ratio of 90% or more (almost completely withered))	0 (Herbicidal ratio of 5% or lower (almost no effect))	0 (Herbicidal ratio of 5% or lower (almost no effect))	2 (Herbicidal ratio of 20% or higher and lower than 40%)	0 (Herbicidal ratio of 5% or lower (almost no effect))						
CON=C(C)CC1CC(O)=C(c2c(C)cc(OCc3ccncc3)cc2C)C1=O (mixture of isomers) [6-053]				1 (Herbicidal ratio of 5% or higher and lower than 20%)	5 (Herbicidal ratio of 90% or more (almost completely withered))	1 (Herbicidal ratio of 5% or higher and lower than 20%)				5 (Herbicidal ratio of 90% or more (almost completely withered))	5 (Herbicidal ratio of 90% or more (almost completely withered))	0 (Herbicidal ratio of 5% or lower (almost no effect))	0 (Herbicidal ratio of 5% or lower (almost no effect))	0 (Herbicidal ratio of 5% or lower (almost no effect))	0 (Herbicidal ratio of 5% or lower (almost no effect))
CON=C(C)CC1CC(O)=C(c2c(C)cc(-c3ccc(F)c(Cl)c3)cc2C)C1=O (stereo not drawn) [6-085]	5 (Herbicidal ratio of 90% or more (almost completely withered))	5 (Herbicidal ratio of 90% or more (almost completely withered))	3 (Herbicidal ratio of 40% or higher and lower than 70%)	4 (Herbicidal ratio of 70% or higher and lower than 90%)	5 (Herbicidal ratio of 90% or more (almost completely withered))	0 (Herbicidal ratio of 5% or lower (almost no effect))	5 (Herbicidal ratio of 90% or more (almost completely withered))	5 (Herbicidal ratio of 90% or more (almost completely withered))	4 (Herbicidal ratio of 70% or higher and lower than 90%)						
CON=C(C)CC1CC(OC(=O)COc2ccccc2)=C(c2c(C)cc(C)cc2OC)C1=O (stereo not drawn) [6-091]	5 (Herbicidal ratio of 90% or more (almost completely withered))	5 (Herbicidal ratio of 90% or more (almost completely withered))	1 (Herbicidal ratio of 5% or higher and lower than 20%)	5 (Herbicidal ratio of 90% or more (almost completely withered))	5 (Herbicidal ratio of 90% or more (almost completely withered))	4 (Herbicidal ratio of 70% or higher and lower than 90%)	4 (Herbicidal ratio of 70% or higher and lower than 90%)	4 (Herbicidal ratio of 70% or higher and lower than 90%)	5 (Herbicidal ratio of 90% or more (almost completely withered))						
CON=C(C)CC1CC(O)=C(c2c(C)cc(-c3ccc(Cl)cc3F)cc2C)C1=O (stereo not drawn) [6-084]	5 (Herbicidal ratio of 90% or more (almost completely withered))	5 (Herbicidal ratio of 90% or more (almost completely withered))		3 (Herbicidal ratio of 40% or higher and lower than 70%)	5 (Herbicidal ratio of 90% or more (almost completely withered))	0 (Herbicidal ratio of 5% or lower (almost no effect))		5 (Herbicidal ratio of 90% or more (almost completely withered))				0 (Herbicidal ratio of 5% or lower (almost no effect))	3 (Herbicidal ratio of 40% or higher and lower than 70%)		0 (Herbicidal ratio of 5% or lower (almost no effect))
CC(=O)CC1CC(O)=C(c2c(C)cc(Br)cc2C)C1=O (stereo not drawn) [7-002]	5 (Herbicidal ratio of 90% or more (almost completely withered))	5 (Herbicidal ratio of 90% or more (almost completely withered))	0 (Herbicidal ratio of 5% or lower (almost no effect))	0 (Herbicidal ratio of 5% or lower (almost no effect))	5 (Herbicidal ratio of 90% or more (almost completely withered))	0 (Herbicidal ratio of 5% or lower (almost no effect))	0 (Herbicidal ratio of 5% or lower (almost no effect))	0 (Herbicidal ratio of 5% or lower (almost no effect))	0 (Herbicidal ratio of 5% or lower (almost no effect))						
COc1ccc(-c2cc(C)c(C3=C(O)CC(CC(C)=O)C3=O)c(C)c2)cc1 (stereo not drawn) [7-006]	5 (Herbicidal ratio of 90% or more (almost completely withered))	5 (Herbicidal ratio of 90% or more (almost completely withered))	0 (Herbicidal ratio of 5% or lower (almost no effect))	0 (Herbicidal ratio of 5% or lower (almost no effect))	5 (Herbicidal ratio of 90% or more (almost completely withered))	0 (Herbicidal ratio of 5% or lower (almost no effect))	0 (Herbicidal ratio of 5% or lower (almost no effect))	0 (Herbicidal ratio of 5% or lower (almost no effect))	0 (Herbicidal ratio of 5% or lower (almost no effect))						
CON=C(C)CC1CC(OCOC(=O)c2ccccc2)=C(c2c(C)cc(-c3ccc(Cl)cc3)cc2C)C1=O (stereo not drawn) [6-083]	4 (Herbicidal ratio of 70% or higher and lower than 90%)	5 (Herbicidal ratio of 90% or more (almost completely withered))		3 (Herbicidal ratio of 40% or higher and lower than 70%)	5 (Herbicidal ratio of 90% or more (almost completely withered))	4 (Herbicidal ratio of 70% or higher and lower than 90%)		0 (Herbicidal ratio of 5% or lower (almost no effect))				0 (Herbicidal ratio of 5% or lower (almost no effect))	0 (Herbicidal ratio of 5% or lower (almost no effect))		0 (Herbicidal ratio of 5% or lower (almost no effect))
